# Data: US10927117B2 (BEIGENE SWITZERLAND GMBH, priority 2016, dated 2021)
# Experiments:
# [1] = tested on: TMD8 cells (ABC type diffuse large B-cell lymphoma cell line); test: Tumor cell proliferation, CellTiter-Glo, TMD-8; format: cell-based; details: Homo sapiens, TMD8, 144 h; TMD-8 cell line, DLBCL(ABC); 6-day exposure; mean of 3 independent assays; read-out: Potency IC50
# Description: 3 MCL cell lines (Rec-1, Mino and JEKO-1) and an ABC type diffuse large B-cell lymphoma cell line (TMD8) were used in this study. Cell lines were maintained in RPMI-1640 supplemented with 10% fetal bovine serum/FBS (Thermo Scientific); 100 units/ml penicillin (Gibco) and 0.1 mg/ml streptomycin (Gibco) and kept at 37° C. in a humidified atmosphere of 5% CO2 in air. Cell lines were reinstated from frozen stocks that were laid down within 30 passages from the original cells purchased.
# The growth-inhibitory activity of compounds in Rec-1, Mino, JEKO-1 and TMD-8 cells was determined using CellTiter-Glo luminescent cell viability assay (Promega). The number of cells seeded per well of a 96-well plate was optimized for each cell line to ensure logarithmic growth over 6 days treatment period. Cells were treated in triplicate with a 10-point dilution series. […] Mixture was mixed on an orbital shaker for 2 minutes to allow cell lysis, followed by 10 minutes incubation at room temperature to allow development and stabilization of luminescent signal, which corresponded to quantity of ATP and thus the quantity of metabolically active cells. Luminescent signal was measured using PHERAstar FS reader (BMG Labtech). IC50 values for cell viability were determined with GraphPad Prism software and were the mean of 3 independent assays.
# [2] = Pharmacokinetics in rats (LC-MS/MS); format: in vivo, Sprague-Dawley rats
# [3] = Pharmacokinetics in dogs (LC-MS/MS); format: in vivo, beagle dogs
# [4] = tested on: Waldenstrom's Macroglobulinemia (WM); test: Phase 1 trial in patients with Waldenstrom's Macroglobulinemia (WM); format: in vivo, human
# Description: The dose-escalation component of the trail tested total daily doses ranging from 40 mg to 320 mg, and the ongoing dose-expansion phase is testing doses of 160 mg twice a day (BID) or 320 mg once a day (QD). As of Mar. 31, 2017, 48 patients with WM were enrolled in the study. Responses were determined according to the modified Sixth International Workshop on WM (IWWM) criteria.
# [5] = Metabolism in human liver microsomes (responsible CYP isoform)
smiles,measurement,setting,value
"C=CC(=O)N1CCC([C@@H]2CCNc3c(C(N)=O)c(-c4ccc(Oc5ccccc5)cc4)nn32)CC1 [Crystalline Form A, (S)-7-(1-acryloylpiperidin-4-yl)-2-(4-phenoxyphenyl)-4,5,6,7-tetra-hydropyrazolo[1,5-a]pyrimidine-3-carboxamide]",IC50,[1],0.54 nM
same,linearity of kinetics over the dose range,[2]; female rats,linear
same,accumulation following multiple oral dosing,[2]; male and female rats,no statistically significant accumulation
same,linearity of kinetics,[2]; male rats,not as good
same,absorption,[2]; rats,quickly absorbed
same,oral bioavailability,[2]; rats,good oral bioavailability
same,plasma clearance (CL),[2]; rats,high plasma clearance
same,accumulation following multiple oral dosing,[3],no accumulation
same,bioavailability (F %),[3],reasonably good bioavailability
same,clearance (CL),[3],moderate clearance
same,linearity of PK over the dose range,[3],linear PK over the dose range
"C=CC(=O)N1CCC([C@@H]2CCNc3c(C(N)=O)c(-c4ccc(Oc5ccccc5)cc4)nn32)CC1 [Compound 1, (S)-7-(1-acryloylpiperidin-4-yl)-2-(4-phenoxyphenyl)-4,5,6,7-tetra-hydropyrazolo[1,5-a]pyrimidine-3-carboxamide]",discontinuation for Compound 1-related toxicity,[4],no discontinuation
same,events leading to treatment discontinuation,[4],Three events
same,serious AEs assessed to be possibly related,[4],Five
same,major response rate,[4]; 42 evaluable patients,76%
same,partial responses,[4]; 42 evaluable patients,33%
same,overall response rate (ORR),"[4]; 42 evaluable patients, median follow-up 12.3 months",90%
same,AE anemia,[4]; 48 patients,15%
same,AE constipation,[4]; 48 patients,25%
same,AE cough,[4]; 48 patients,15%
same,AE diarrhea,[4]; 48 patients,19%
same,AE epistaxis,[4]; 48 patients,19%
same,AE headache,[4]; 48 patients,15%
same,AE nausea,[4]; 48 patients,17%
same,AE neutropenia,[4]; 48 patients,13%
same,AE rash,[4]; 48 patients,13%
same,AE upper respiratory tract infection,[4]; 48 patients,31%
same,grade 3 or 4 anemia,[4]; 48 patients,8%
same,grade 3 or 4 diarrhea,[4]; 48 patients,2%
same,grade 3 or 4 headache,[4]; 48 patients,2%
same,grade 3 or 4 neutropenia,[4]; 48 patients,8%
same,AE petechiae/purpura/contusion,"[4]; 48 patients, any attribution",35%
same,cases of atrial fibrillation,[4]; all grade 1 or 2,three cases
same,serious hemorrhage,[4]; hemothorax,one case
same,major CYP isoform responsible for the metabolism,[5],CYP3A
